Measured values published in article PMC8704389, “New Insights into the Hypotensins from Tityus serrulatus Venom: Pro-Inflammatory and Vasopeptidases Modulation Activities” (Toxins, 2021).
Several values for one entry are separate records, joined by “and”; a condition that tells them apart may be missing. Equal values may be shown once. No end group written: not given here.

Tests used:
[1] = tested on: NEP; experiment: in vitro; assay type: in vitro ADME; details: human, isolated enzyme neprilysin; 30 µM peptide, NEP 1.5 ng, Tris HCl 50 mM, pH 7.5, 4 h, 37 °C, RP-HPLC C18, UV 214 nm; read-out: hydrolysis products after incubation with NEP
Protocol: Figure 1 Analysis of the susceptibility to hydrolysis of the hypotensins over the vasopeptidases NEP and ACE. Incubations were carried out in Tris HCl 100 mM, NaCl 50 mM and ZnCl2 10 µM, pH 7.0, for the ACE assays, and, for the NEP assays, in Tris HCl 50 mM, pH 7.5 buffer, for four hours at 37 °C. (A) TsHpt-I control (black line) and after incubation with NEP (red line). (B) TsHpt-II control (black line) and TsHpt-II incubated with NEP (red line). (C) TsHpt-I control (black line) and incubated with ACE (red line). (D) TsHpt-II control (black line) and after incubation with ACE (red line). The samples of negative and experimental controls (A) TsHpt-I and (B) TsHpt-II are shown on the left and right, respectively. The hydrolysis products were considered ≤5%. The gradient used was 20% to 60% solvent B in 20 min, and 60% to 100% solvent B in 5 min (flow 1 mL/min, absorbance at 214 nm). Restek Ultra C-18 5 µm column, 250 × 4.6 mm.
The synthetic peptides TsHpt-I and TsHpt-II (30 µM) were incubated with ACE (3.0 ng), in Tris HCl 100 mM, NaCl 50 mM and ZnCl2 10 µM, pH 7.0 buffer, and NEP (1.5 ng), in Tris HCl 50 mM, pH 7.5 buffer, at 37 °C for 4 h. Samples containing only the synthetic peptides were used as the negative control. After incubation, samples were analyzed by reverse phase chromatography on RP-HPLC (Shimadzu, Kyoto, Japan), using a Restek Ultra C-18 column (5 µm, 250 × 4.6 mm). […]

[2] = biological target: T1, ACE (Oryctolagus cuniculus, UniProt P12822); experiment: Modulation of ACE activity, FRET substrate Abz-FRK(Dnp)P-OH; assay type: biochemical, rabbit; details: 10 µM peptide, 3.0 ng ACE, 10 µM Abz-FRK(Dnp)P-OH, Tris HCl 100 mM, NaCl 50 mM, ZnCl2 10 µM, pH 7.0, 37 °C, 15 min, fluorescence 320/420 nm, triplicate
T1 construct: Angiotensin Converting Enzyme (ACE) from rabbit lung; purchased Sigma-Aldrich; host or cells: rabbit lung tissue
T1 sequence (P12822 34-1310): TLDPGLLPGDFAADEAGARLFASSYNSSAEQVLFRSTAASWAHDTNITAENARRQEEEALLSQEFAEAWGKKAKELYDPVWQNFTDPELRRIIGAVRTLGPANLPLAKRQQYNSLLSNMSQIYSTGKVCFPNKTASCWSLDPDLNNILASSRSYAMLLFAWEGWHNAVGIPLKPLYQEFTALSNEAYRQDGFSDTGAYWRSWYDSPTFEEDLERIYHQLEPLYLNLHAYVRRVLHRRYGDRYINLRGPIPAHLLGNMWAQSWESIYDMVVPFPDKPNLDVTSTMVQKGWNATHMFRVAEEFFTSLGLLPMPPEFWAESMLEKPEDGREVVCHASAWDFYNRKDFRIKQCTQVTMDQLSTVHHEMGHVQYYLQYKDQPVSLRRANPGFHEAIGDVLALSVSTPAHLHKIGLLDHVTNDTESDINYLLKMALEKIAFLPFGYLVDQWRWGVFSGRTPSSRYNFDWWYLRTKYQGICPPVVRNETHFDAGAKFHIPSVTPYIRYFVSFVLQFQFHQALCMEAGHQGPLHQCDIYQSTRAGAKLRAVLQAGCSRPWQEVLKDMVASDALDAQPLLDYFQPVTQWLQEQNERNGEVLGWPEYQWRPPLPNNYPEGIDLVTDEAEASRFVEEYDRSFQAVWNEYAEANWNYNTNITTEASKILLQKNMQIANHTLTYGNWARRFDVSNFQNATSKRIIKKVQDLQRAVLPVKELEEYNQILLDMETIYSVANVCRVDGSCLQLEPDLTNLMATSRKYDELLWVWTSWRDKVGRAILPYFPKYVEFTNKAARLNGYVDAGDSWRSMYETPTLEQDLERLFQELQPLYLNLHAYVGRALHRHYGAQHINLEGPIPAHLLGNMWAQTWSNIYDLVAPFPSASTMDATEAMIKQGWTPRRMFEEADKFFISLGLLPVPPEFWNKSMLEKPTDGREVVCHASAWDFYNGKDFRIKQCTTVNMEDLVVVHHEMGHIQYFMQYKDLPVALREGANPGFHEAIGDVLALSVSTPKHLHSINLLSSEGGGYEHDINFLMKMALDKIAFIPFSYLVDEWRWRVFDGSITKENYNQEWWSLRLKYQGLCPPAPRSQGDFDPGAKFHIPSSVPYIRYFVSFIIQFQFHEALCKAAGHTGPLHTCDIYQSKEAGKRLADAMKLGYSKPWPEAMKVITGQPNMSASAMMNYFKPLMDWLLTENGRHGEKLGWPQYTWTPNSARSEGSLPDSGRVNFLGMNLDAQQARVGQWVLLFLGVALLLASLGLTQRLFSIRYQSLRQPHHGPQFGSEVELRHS
Protocol: The results were obtained by incubating the enzymes with their FRET substrates (10 µM) in a final volume of 100 µL. For the ACE assays, the used buffer was Tris HCl 100 mM, NaCl 50 mM and ZnCl2 10 µM, pH 7.0. For NEP, the assays were made in Tris HCl 50 mM, pH 7.5 buffer. All reactions occurred at 37 °C, in a Victor 3 fluorimeter (Perkin–Elmer) adjusted for excitation and emission readings at 320 and 420 nm, respectively, for 15 min (one reader per minute). Results were obtained in triplicate and analyzed on GraFit 5 software.
For ACE assays, 10 µM of each peptide was incubated with 3.0 ng of peptidase and 10 µM of Abz-FRK (Dnp) P-OH substrate, in Tris HCl 100 mM, NaCl 50 mM and ZnCl2 10 µM, pH 7.0 buffer. For NEP, 10 µM of TsHpt-I or -II was incubated with 1.5 ng of peptidase, 3.5 µM Abz-RGFK (Dnp)-OH in Tris HCl 50 mM, pH 7.5 buffer. All reactions occurred at 37 °C, in a final volume of 100 µL, in a Victor 3 fluorimeter (Perkin–Elmer, Waltham, MA, USA) adjusted for excitation and emission readings at 320 and 420 nm, respectively, for 15 min (one reader per minute). Results were obtained in triplicate and analyzed using GraFit 5 (Erithacus software, East Grinstead, West Sussex, UK).

Q: Which results are given for AEIDFSGIPEDIIKEIKETNAKPPA [TsHpt-II]?
A: metabolised at 4 h, 30 µM [1]: ≤ 5%; ACE Activation (%) [2]: 46% and 44%

Q: What does the source list for AEIDFSGIPEDIIKQIKETNAKPPA [TsHpt-I]?
A: metabolised at 4 h, 30 µM [1]: ≤ 5%; ACE Activation (%) [2]: 64%
